The source made the active and inactive calls. The rule behind the calls is not given here.
Experiments:
[1] = molecular target: Fibroblast growth factor receptor (Homo sapiens) (UniProt P22607+P11362+P22455+P21802); test: Inhibition of human FGFR at 1 uM; assay type: protein assay
[2] = system: SH-SY5Y; test: Induction of apoptosis in human SH-SY5Y cells assessed as late apoptotic cells at 1 uM measured after 24 hrs by Annexin V-FITC/PI staining based flowcytometry (reference value: 14.32%); assay type: functional
[3] = system: SH-SY5Y; test: Cell cycle arrest in human SH-SY5Y cells assessed as accumulation of cells at G1 phase at 2 uM measured after 24 hrs by PI staining based flowcytometry method (reference value: 59.8%); assay type: functional
[4] = system: SH-SY5Y; test: Induction of apoptosis in human SH-SY5Y cells assessed as viable cells at 4 uM measured after 24 hrs by Annexin V-FITC/PI staining based flowcytometry (reference value: 77.05%); assay type: functional; settings: read-out: Activity
[5] = molecular target: T1, ALK tyrosine kinase receptor (Homo sapiens, UniProt Q9UM73); test: Inhibition of human ALK in human SH-SY5Y cells assessed as inhibition of Akt phosphorylation at Ser473 residue at 4 uM measured after 24 hrs by Western blot assay; assay type: cell-based
Target sequence in this assay (Q9UM73 19-1620 limits assumed): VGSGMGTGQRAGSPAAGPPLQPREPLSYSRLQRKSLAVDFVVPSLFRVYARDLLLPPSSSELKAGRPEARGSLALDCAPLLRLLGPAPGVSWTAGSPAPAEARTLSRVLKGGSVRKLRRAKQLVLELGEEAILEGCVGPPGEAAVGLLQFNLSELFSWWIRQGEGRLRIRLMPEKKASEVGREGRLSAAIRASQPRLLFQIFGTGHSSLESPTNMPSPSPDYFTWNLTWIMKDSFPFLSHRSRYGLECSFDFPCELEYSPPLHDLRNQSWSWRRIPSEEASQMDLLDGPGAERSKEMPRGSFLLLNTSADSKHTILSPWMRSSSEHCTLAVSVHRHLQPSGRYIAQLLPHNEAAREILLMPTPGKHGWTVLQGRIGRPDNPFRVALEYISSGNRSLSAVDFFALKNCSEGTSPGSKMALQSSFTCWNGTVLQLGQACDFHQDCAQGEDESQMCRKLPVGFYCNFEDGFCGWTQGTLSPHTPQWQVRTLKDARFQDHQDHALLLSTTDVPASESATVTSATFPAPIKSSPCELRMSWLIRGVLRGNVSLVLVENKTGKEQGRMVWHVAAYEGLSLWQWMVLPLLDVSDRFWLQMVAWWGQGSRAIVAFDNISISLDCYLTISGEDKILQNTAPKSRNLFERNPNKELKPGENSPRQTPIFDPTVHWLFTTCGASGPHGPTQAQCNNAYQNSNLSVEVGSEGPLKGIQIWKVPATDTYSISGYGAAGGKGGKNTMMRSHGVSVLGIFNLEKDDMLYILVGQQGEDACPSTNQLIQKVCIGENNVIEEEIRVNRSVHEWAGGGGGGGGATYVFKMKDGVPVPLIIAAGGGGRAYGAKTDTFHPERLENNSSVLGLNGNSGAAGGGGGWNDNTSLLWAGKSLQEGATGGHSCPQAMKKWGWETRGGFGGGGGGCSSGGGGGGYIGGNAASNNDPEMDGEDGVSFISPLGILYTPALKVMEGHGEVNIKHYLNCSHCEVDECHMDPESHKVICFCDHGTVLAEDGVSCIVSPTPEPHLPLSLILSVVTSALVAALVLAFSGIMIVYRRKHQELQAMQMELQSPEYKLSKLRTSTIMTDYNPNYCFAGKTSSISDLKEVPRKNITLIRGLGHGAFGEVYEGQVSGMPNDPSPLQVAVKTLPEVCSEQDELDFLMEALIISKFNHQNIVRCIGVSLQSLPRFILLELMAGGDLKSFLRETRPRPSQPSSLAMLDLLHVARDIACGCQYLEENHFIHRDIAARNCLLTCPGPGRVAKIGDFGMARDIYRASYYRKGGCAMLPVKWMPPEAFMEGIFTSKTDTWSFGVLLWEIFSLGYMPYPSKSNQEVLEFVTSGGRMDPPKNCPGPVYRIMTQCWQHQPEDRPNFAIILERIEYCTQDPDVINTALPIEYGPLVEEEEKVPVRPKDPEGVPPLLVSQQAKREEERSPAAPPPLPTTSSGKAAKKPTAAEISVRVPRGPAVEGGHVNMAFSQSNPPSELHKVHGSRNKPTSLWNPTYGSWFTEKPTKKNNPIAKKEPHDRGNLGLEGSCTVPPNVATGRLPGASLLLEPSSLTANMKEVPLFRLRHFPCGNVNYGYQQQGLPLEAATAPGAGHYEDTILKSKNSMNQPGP

[6] = system: MDA-MB-231; test: Induction of apoptosis in human MDA-MB-231 cells assessed as orange-red fluorescence intensity at 1 to 4 uM measured after 24 hrs by AO/EB staining based fluorescence microscopy; assay type: functional, cell-based; settings: dose 1-4 µM
[7] = Potency index, ratio of ceritinib IC50 to test compound IC50 for human SKNBE2 cells harboring wild type ALK assessed as inhibition of cell proliferation measured after 72 hrs by CCK8 assay; assay type: functional
[8] = system: MDA-MB-231; test: Cell cycle arrest in human MDA-MB-231 cells assessed as accumulation of cells at G2 phase at 4 uM measured after 24 hrs by PI staining based flowcytometry method (reference value: 23.89%); assay type: functional
[9] = system: MDA-MB-231; test: Induction of apoptosis in human MDA-MB-231 cells assessed as viable cells at 4 uM measured after 24 hrs by Annexin V-FITC/PI staining based flowcytometry (reference value: 93.14%); assay type: functional; settings: read-out: Activity
[10] = molecular target: Insulin-like growth factor 1 receptor (Homo sapiens) (UniProt P08069); test: Inhibition of human IGF1R at 1 uM
[11] = system: ALK tyrosine kinase receptor (Homo sapiens), Q9UM73 [G1202R]; test: Potency index, ratio of repotrectinib IC50 to test compound IC50 for inhibition of ALK G1202R mutant (unknown origin)
[12] = system: MDA-MB-231; test: Induction of apoptosis in human MDA-MB-231 cells assessed as increase in blue fluorescence intensity at 1 to 4 uM measured after 24 hrs by Hoechst33258 staining based fluorescence microscopy; assay type: functional, cell-based; settings: dose 1-4 µM
[13] = system: SH-SY5Y; test: Induction of apoptosis in human SH-SY5Y cells assessed as early apoptotic cells at 4 uM measured after 24 hrs by Annexin V-FITC/PI staining based flowcytometry (reference value: 0.82%); assay type: functional
[14] = system: MDA-MB-231; test: Induction of apoptosis in human MDA-MB-231 cells assessed as viable cells at 2 uM measured after 24 hrs by Annexin V-FITC/PI staining based flowcytometry (reference value: 93.14%); assay type: functional; settings: read-out: Activity
[15] = system: SH-SY5Y; test: Cell cycle arrest in human SH-SY5Y cells assessed as accumulation of cells at G1 phase at 1 uM measured after 24 hrs by PI staining based flowcytometry method (reference value: 59.8%); assay type: functional
[16] = molecular target: T1, ALK tyrosine kinase receptor; test: Inhibition of ALK in human MDA-MB-231 cells assessed as inhibition of AKT phosphorylation at Ser473 residue at 4 uM measured after 24 hrs by Western blot assay; assay type: cell-based
Target sequence in this assay (Q9UM73 19-1620 limits assumed): as above

[17] = system: HepG2; test: cells; assay type: functional, cell-based; settings: Homo sapiens, HepG2, 72 h
Description: Antiproliferative activity against human HepG2 cells assessed as inhibition of cell proliferation measured after 72 hrs by CCK8 assay

[18] = system: SH-SY5Y; test: Cell cycle arrest in human SH-SY5Y cells assessed as accumulation of cells at G2 phase at 2 uM measured after 24 hrs by PI staining based Flowcytometry method (reference value: 13.23%); assay type: functional
[19] = species on record: Homo sapiens; test: Inhibition of human Aurora kinase at 1 uM
[20] = molecular target: Histone deacetylase 2 (Homo sapiens, UniProt Q92769)
Description: Inhibition of HDAC2 (unknown origin)

[21] = molecular target: T1, ALK tyrosine kinase receptor
Target sequence in this assay (Q9UM73 whole entry): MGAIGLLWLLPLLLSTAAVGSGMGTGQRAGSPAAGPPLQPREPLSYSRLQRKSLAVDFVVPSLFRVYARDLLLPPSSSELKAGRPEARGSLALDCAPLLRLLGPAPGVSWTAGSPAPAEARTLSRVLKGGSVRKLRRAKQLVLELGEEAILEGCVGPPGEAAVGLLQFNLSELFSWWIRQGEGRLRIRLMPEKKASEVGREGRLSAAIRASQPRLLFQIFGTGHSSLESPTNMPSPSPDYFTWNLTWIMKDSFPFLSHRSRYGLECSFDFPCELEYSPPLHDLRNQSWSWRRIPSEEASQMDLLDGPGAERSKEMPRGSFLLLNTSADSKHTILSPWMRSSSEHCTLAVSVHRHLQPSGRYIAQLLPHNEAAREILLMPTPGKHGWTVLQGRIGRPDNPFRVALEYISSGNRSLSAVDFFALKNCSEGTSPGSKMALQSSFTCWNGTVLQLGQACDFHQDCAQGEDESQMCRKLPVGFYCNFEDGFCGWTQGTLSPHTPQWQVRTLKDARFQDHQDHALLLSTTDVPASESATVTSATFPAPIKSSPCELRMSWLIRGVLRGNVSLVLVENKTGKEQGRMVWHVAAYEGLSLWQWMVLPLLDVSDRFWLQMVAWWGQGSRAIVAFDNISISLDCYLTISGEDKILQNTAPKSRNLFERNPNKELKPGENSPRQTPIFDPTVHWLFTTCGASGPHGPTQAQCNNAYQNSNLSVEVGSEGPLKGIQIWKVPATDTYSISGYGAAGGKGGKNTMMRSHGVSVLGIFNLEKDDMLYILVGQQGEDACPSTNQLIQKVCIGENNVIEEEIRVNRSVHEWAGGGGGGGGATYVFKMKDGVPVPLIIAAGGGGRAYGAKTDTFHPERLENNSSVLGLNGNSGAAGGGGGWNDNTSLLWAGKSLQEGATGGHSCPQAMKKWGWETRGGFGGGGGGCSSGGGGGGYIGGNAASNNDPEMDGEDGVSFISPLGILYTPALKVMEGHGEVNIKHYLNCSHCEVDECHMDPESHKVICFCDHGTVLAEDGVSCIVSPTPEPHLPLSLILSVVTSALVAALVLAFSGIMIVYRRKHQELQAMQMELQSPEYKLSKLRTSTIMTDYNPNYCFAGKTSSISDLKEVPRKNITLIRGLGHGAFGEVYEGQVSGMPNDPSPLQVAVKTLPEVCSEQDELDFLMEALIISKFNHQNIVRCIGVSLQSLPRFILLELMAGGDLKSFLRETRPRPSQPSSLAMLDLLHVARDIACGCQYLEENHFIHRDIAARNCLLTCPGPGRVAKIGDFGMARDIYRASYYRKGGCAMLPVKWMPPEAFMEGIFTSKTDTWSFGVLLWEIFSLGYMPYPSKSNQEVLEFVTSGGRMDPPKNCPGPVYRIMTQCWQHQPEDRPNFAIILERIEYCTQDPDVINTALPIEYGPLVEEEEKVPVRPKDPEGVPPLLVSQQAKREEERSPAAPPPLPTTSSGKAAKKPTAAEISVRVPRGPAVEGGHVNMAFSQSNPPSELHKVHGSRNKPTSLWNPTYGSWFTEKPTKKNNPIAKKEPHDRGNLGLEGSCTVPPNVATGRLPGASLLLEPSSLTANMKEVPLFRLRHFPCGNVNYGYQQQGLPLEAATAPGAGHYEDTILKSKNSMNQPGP
Description: Inhibition of ALK (unknown origin) preincubated for 10 mins followed by addition of substrate and ATP for 25 mins by caliper EZ reader method

[22] = species on record: Homo sapiens; test: Inhibition of human FLT at 1 uM
[23] = molecular target: T2, Histone deacetylase 1 (Homo sapiens, UniProt Q13547); settings: Sf9, dose 10.0 nM, time 15.0 min
[24] = system: SH-SY5Y; test: Cell cycle arrest in human SH-SY5Y cells assessed as accumulation of cells at S phase at 1 uM measured after 24 hrs by PI staining based flowcytometry method (reference value: 27.69%); assay type: functional
[25] = system: SH-SY5Y; test: Induction of apoptosis in human SH-SY5Y cells assessed as necrotic cells at 4 uM measured after 24 hrs by Annexin V-FITC/PI staining based flowcytometry (reference value: 7.81%); assay type: functional
[26] = molecular target: Histone deacetylase (Homo sapiens) (UniProt Q13547+O15379+Q9UBN7+Q92769+Q9UQL6+Q8WUI4+Q9BY41+Q96DB2+P56524+Q9UKV0+Q969S8); test: Inhibition of HDAC in human MDA-MB-231 cells assessed as increase of intracellular acetylated histone H3 level at 1 to 4 uM measured after 24 hrs by Western blot assay; assay type: cell-based; settings: dose 1-4 µM
[27] = system: SH-SY5Y; test: Induction of apoptosis in human SH-SY5Y cells assessed as necrotic cells at 2 uM measured after 24 hrs by Annexin V-FITC/PI staining based flowcytometry (reference value: 7.81%); assay type: functional
[28] = system: SH-SY5Y; test: Induction of apoptosis in human SH-SY5Y cells assessed as necrotic cells at 1 uM measured after 24 hrs by Annexin V-FITC/PI staining based flowcytometry (reference value: 7.81%); assay type: functional
[29] = Potency index, ratio of crizotinib IC50 to test compound IC50 for human SKNBE2 cells harboring wild type ALK assessed as inhibition of cell proliferation measured after 72 hrs by CCK8 assay; assay type: functional
[30] = molecular target: T2, Histone deacetylase 1; settings: Sf9, dose 100.0 nM, time 15.0 min
[31] = system: MDA-MB-231; test: Induction of apoptosis in human MDA-MB-231 cells assessed as necrotic cells at 1 uM measured after 24 hrs by Annexin V-FITC/PI staining based flowcytometry (reference value: 0.94%); assay type: functional
[32] = system: SH-SY5Y; test: Induction of apoptosis in human SH-SY5Y cells assessed as viable cells at 2 uM measured after 24 hrs by Annexin V-FITC/PI staining based flowcytometry (reference value: 77.05%); assay type: functional; settings: read-out: Activity
[33] = system: SH-SY5Y; test: Inhibition of colony formation in human SH-SY5Y cells at 0.1 to 0.4 uM incubated for 3 days followed by incubation in drug-free medium for 12 days by crystal violet staining based assay; assay type: functional, cell-based; settings: dose 0.1-0.4 µM, time 3.0 day
[34] = system: MDA-MB-231; test: Induction of apoptosis in human MDA-MB-231 cells assessed as early apoptotic cells at 2 uM measured after 24 hrs by Annexin V-FITC/PI staining based flowcytometry (reference value: 0.64%); assay type: functional
[35] = molecular target: T1, ALK tyrosine kinase receptor; test: Inhibition of ALK (unknown origin) at 100 nM preincubated for 10 mins followed by addition of substrate and ATP for 25 mins by caliper EZ reader method; settings: time 35.0 min
Target sequence in this assay (Q9UM73 19-1620 limits assumed): as the sequence (Q9UM73 19-1620 limits assumed) above

[36] = Cmax in Sprague-Dawley rat at 1 mg/kg, iv measured for 12 hrs by LC-MS/MS analysis; assay type: ADME, organism-based; parameters: route intravenous, time 12 hrs, dose 1 mg/kg; settings: in vivo

T2 sequence (Q13547 whole entry): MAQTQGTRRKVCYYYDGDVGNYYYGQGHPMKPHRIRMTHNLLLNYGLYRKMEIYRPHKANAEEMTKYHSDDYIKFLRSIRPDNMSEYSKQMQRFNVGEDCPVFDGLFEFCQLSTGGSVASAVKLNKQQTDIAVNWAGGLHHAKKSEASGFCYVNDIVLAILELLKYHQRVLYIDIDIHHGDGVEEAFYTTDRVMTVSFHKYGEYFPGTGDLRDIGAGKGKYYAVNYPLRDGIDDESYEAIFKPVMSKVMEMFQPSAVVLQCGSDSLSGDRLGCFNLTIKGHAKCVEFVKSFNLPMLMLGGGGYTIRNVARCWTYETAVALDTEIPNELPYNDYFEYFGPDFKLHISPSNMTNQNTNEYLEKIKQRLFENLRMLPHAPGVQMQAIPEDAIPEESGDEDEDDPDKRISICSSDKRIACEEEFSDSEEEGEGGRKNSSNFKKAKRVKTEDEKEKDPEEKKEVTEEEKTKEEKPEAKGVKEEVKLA
Chain of ALK tyrosine kinase receptor (Homo sapiens), Q9UM73 [G1202R] (Q9UM73 whole entry G1202R): as the sequence (Q9UM73 whole entry) above, with G1202R counted along it
Chain of Histone deacetylase 2 (Q92769 whole entry): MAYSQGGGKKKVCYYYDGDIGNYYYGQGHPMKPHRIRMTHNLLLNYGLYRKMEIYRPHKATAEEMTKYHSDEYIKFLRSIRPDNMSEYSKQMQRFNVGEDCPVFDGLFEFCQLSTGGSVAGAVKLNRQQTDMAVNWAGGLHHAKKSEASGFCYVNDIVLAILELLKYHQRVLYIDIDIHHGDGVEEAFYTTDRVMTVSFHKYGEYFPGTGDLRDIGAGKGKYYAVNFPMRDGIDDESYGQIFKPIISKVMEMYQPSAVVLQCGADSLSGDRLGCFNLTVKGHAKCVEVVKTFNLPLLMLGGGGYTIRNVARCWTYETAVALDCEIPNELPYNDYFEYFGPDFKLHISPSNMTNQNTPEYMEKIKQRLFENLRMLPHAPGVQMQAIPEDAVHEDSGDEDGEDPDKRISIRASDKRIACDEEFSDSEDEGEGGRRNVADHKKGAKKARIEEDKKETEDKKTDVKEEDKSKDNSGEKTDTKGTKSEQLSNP

inhibition [1]: 95% | inhibition [5]: Active | inhibition [10]: Active | Ratio IC50 [11]: 10 | inhibition [16]: Active | IC50 [17]: 640 nM | inhibition [19]: 95% | IC50 [20]: 9.3 nM | IC50 [21]: 2.1 nM | inhibition [22]: Active | inhibition [23]: 54% | inhibition [26]: Active | inhibition [30]: 87% | inhibition [35]: 96.6% | Cmax [36]: 1480 ng/mL
SMILES: CC(C)S(=O)(=O)c1ccccc1Nc1nc(Nc2ccc(NC(=O)CCCCCCC(=O)NO)cc2)ncc1Cl
Activity [2]: 21.05% | Activity [3]: 3.56% | viability at 4 µM [4]: 38.3% | Activity [6]: Active | Ratio IC50 [7]: 3 | Activity [8]: 50.99% | viability at 4 µM [9]: 76.9% | Activity [12]: Active | Activity [13]: 5.34% | viability at 2 µM [14]: 85.1% | Activity [15]: 32.97% | Activity [18]: 75.94% | Activity [24]: 18.33% | Activity [25]: 12.95% | Activity [27]: 10.51% | Activity [28]: 10.08% | Ratio IC50 [29]: 3 | Activity [31]: 1.36% | viability at 2 µM [32]: 58.6% | inhibition [33]: Active | Activity [34]: 5.5%

From ChEMBL document CHEMBL4828709, “Discovery of 2,4-pyrimidinediamine derivatives as potent dual inhibitors of ALK and HDAC” (Eur J Med Chem, 2021)
